From patent US20110224226A1, “COMPOSITIONS AND METHODS FOR INCREASING BLOOD PLATELET LEVELS IN HUMANS” (AKARX, Inc., priority 2006, published 2011)
Where two headings read alike, the source gives them in different places.

Columns and labels:
CYP1A2 = biological target: T1, CYP1A2 (Homo sapiens, UniProt P05177); assay: inhibition of human liver cytochrome P450 CYP1A2; format: in vitro ADME; details: human liver cytochrome P450 isoenzyme
T1 sequence (P05177 1-516): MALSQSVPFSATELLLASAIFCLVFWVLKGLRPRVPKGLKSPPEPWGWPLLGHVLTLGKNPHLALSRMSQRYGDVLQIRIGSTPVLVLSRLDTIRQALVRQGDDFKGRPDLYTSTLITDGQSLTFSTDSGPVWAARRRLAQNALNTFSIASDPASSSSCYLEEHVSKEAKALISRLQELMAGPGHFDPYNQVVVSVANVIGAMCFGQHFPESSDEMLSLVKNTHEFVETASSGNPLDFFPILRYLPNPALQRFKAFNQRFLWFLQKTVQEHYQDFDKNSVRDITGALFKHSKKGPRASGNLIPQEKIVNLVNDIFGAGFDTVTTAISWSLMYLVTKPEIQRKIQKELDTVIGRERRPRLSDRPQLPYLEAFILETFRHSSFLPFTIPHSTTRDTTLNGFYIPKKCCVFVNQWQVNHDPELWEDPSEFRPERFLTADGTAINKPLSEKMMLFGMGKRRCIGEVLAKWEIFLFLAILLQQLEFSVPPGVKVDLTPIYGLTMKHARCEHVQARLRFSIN

[1] = Example 1 single dose study: pharmacokinetics; format: in vivo, human; details: for Cmax / half-life / AUC(0-inf) / AUC(0-t) / AUC / Tmax: both sexes, human; for Tmax: read-out: mean time to maximum plasma concentration (Tmax)
Protocol: A single-center, randomized, double-blind, dose-rising study to determine the safety, pharmacokinetics, and pharmacodynamics of single doses of 1-(3-chloro-5-{[4-(4-chlorothiophen-2-yl)-5-(4-cyclohexylpiperazin-1-yl)thiazol-2-yl]carbamoyl} pyridin-2-yl)piperadine-4-carboxylic acid (Formula I) in normal healthy volunteers was performed. The starting dose of the drug of Formula I was 1 mg (expressed as free base). Successive dose cohorts received 3, 10, 20, 50, 75 and 100 mg. The drug substance in the form of the monomaleate salt was suspended in Ora-Plus® (purified water, microcrystalline cellulose, sodium carboxymethylcellulose, xanthan gum, citric acid, sodium phosphate, simethicone, potassium sorbate and methylparaben), a commercially available oral suspending vehicle manufactured by Paddock Laboratories, Inc. Minneapolis, Minn. The Ora-Plus® was diluted with purified water, USP in a 1:1 suspension before being used to suspend the drug substance powder in preparation for oral administration. Prior to administration, 30 mL of the Ora-Plus®/water vehicle was added to each bottle, shaken and then consumed by the subject for each of the 3, 10, 50 and 75 mg dose cohorts. This was followed by an additional 30 mL of vehicle that was added to the bottle as a wash solution, shaken and then consumed by the subject. For the 20 mg and 100 mg dose cohorts, 60 mL of the Ora-Plus®/water vehicle was added to two (2) separate bottles containing the appropriate dose of drug (30 mL each bottle), shaken then consumed by the subjects. This was followed by an additional 60 mL of vehicle that was added as 30 ml to each bottle as a wash solution, shaken and then consumed by the subject.
A minimum of 9 subjects (male and female healthy volunteers) were enrolled in each cohort. The active group within each cohort included male and female volunteers. Three subjects per cohort received placebo. Each successive dose cohort was treated no sooner than 10 days after the previous group had received the study drug. […] Each subject received only 1 dose of Formula I. Intra-subject dose escalation and treating previously treated subjects in any cohort expansions were not allowed. All subjects were followed until their platelet count returned to normal levels (defined as ±20% of baseline).
Dose escalation was stopped if the PD limiting dose was reached or at the dose at which a dose limiting toxicity (DLT) was observed. The pharmacodynamic limit (PD limit) is defined as the dose at which there was a 50% increase in platelet count relative to the […] in the 6 actively treated subjects. The pharmacodynamic limiting dose (if reached), was repeated by running an additional cohort of 9 subjects (3 placebo and 6 active) at the dose level of the observed PD limit.
Pharmacokinetic sampling was taken. Pharmacodynamic evaluations of platelet counts and other hematological parameters were performed from study drug administration (Day 1) until 7 days after dosing. Outpatient follow-up for safety evaluation occurred until 14 days post-treatment for all subjects and longer for subjects requiring additional follow-up. For the repeat PD dose cohort or 100 mg dose cohort, the evaluations of platelet counts and other hematological parameters were performed each day from Day 1 through 14 and then every other day up to Day 28. If the PD dose limit was not reached at a dose of 75 mg, platelet count evaluations as outlined for the PD limiting dose were performed on the 100 mg dose cohort.

With `O=C(Nc1nc(-c2cc(Cl)cs2)c(N2CCN(C3CCCCC3)CC2)s1)c1cnc(N2CCC(C(=O)O)CC2)c(Cl)c1` [Formula I, 1-(3-chloro-5-{[4-(4-chlorothiophen-2-yl)-5-(4-cyclohexylpiperazin-1-yl)thiazol-2-yl]carbamoyl}pyridin-2-yl)piperadine-4-carboxylic acid] the “inhibition of CYP1A2” value (CYP1A2) was “did not inhibit”, the Cmax ([1]; plasma, oral, 1 mg, single 1 mg daily dose, read-out: mean maximum plasma concentration (Cmax)) was ~5.7 ng/mL and the Cmax ([1]; plasma, oral, 3 mg, single 3 mg daily dose, read-out: mean maximum plasma concentration (Cmax)) was 14 to 17 ng/mL. It also gave a Cmax ([1]; plasma, oral, 10 mg, single 10 mg daily dose, (±20%), read-out: mean maximum plasma concentration (Cmax)) of 53 to 69 ng/mL, a Cmax ([1]; plasma, oral, 20 mg, single 20 mg daily dose, read-out: mean maximum plasma concentration (Cmax)) of 121 to 168 ng/mL and a Cmax ([1]; plasma, oral, 50 mg, single 50 mg daily dose, read-out: mean maximum plasma concentration (Cmax)) of ~311 ng/mL. For the same molecule, the Cmax ([1]; plasma, oral, 75 mg, single 75 mg daily dose, read-out: mean maximum plasma concentration (Cmax)) was ~473 ng/mL, the Cmax ([1]; plasma, oral, 100 mg, 100 mg daily dose, read-out: mean maximum plasma concentration (Cmax)) was ~388 ng/mL and the Cmax ([1]; plasma, po, 1 mg, single oral dose 1 mg, healthy volunteers, final mean, read-out: Cmax) was 5.67 ng/mL. The half-life ([1]; plasma, po, 1 mg, single oral dose 1 mg, healthy volunteers, final mean, read-out: T½ (converted)) was 21.5 h, the Cmax ([1]; plasma, po, 1 mg, single oral dose 1 mg, healthy volunteers, preliminary mean, read-out: Cmax) was 5.15 ng/mL and the half-life ([1]; plasma, po, 1 mg, single oral dose 1 mg, healthy volunteers, preliminary mean, read-out: T½ (converted)) was 18.9 h. The Cmax ([1]; plasma, po, 3 mg, single oral dose 3 mg, healthy volunteers, preliminary mean, read-out: Cmax) was 16 ng/mL, the half-life ([1]; plasma, po, 3 mg, single oral dose 3 mg, healthy volunteers, preliminary mean, read-out: T½ (converted)) was 17.5 h and the Cmax ([1]; plasma, po, 10 mg, single oral dose 10 mg, healthy volunteers, preliminary mean, read-out: Cmax) was 63.6 ng/mL. It also gave a half-life ([1]; plasma, po, 10 mg, single oral dose 10 mg, healthy volunteers, preliminary mean, read-out: T½ (converted)) of 18 h, a Cmax ([1]; plasma, po, 20 mg, single oral dose 20 mg, healthy volunteers, preliminary mean, read-out: Cmax) of 146 ng/mL and a half-life ([1]; plasma, po, 20 mg, single oral dose 20 mg, healthy volunteers, preliminary mean, read-out: T½ (converted)) of 12.9 h. For the same molecule, the Cmax ([1]; plasma, po, 50 mg, single oral dose 50 mg, healthy volunteers, final mean, read-out: Cmax) was 312 ng/mL, the half-life ([1]; plasma, po, 50 mg, single oral dose 50 mg, healthy volunteers, final mean, read-out: T½ (converted)) was 19 h and the Cmax ([1]; plasma, po, 50 mg, single oral dose 50 mg, healthy volunteers, preliminary mean, read-out: Cmax) was 294 ng/mL. The half-life ([1]; plasma, po, 50 mg, single oral dose 50 mg, healthy volunteers, preliminary mean, read-out: T½ (converted)) was 14.8 h, the Cmax ([1]; plasma, po, 75 mg, single oral dose 75 mg, healthy volunteers, final mean, read-out: Cmax) was 474 ng/mL and the half-life ([1]; plasma, po, 75 mg, single oral dose 75 mg, healthy volunteers, final mean, read-out: T½ (converted)) was 18.8 h. For the same molecule, the Cmax ([1]; plasma, po, 75 mg, single oral dose 75 mg, healthy volunteers, preliminary mean, read-out: Cmax) was 446 ng/mL, the half-life ([1]; plasma, po, 75 mg, single oral dose 75 mg, healthy volunteers, preliminary mean, read-out: T½ (converted)) was 15.3 h and the Cmax ([1]; plasma, po, 100 mg, single oral dose 100 mg, healthy volunteers, final mean, read-out: Cmax) was 388 ng/mL. For the same molecule, the half-life ([1]; plasma, po, 100 mg, single oral dose 100 mg, healthy volunteers, final mean, read-out: T½ (converted)) was 18 h, the Cmax ([1]; plasma, po, 100 mg, single oral dose 100 mg, healthy volunteers, preliminary mean, read-out: Cmax) was 365 ng/mL and the half-life ([1]; plasma, po, 100 mg, single oral dose 100 mg, healthy volunteers, preliminary mean, read-out: T½ (converted)) was 15.8 h. The AUC(0-inf) ([1]; plasma, single oral dose 1 mg, healthy volunteers, final mean) was 183 ng·h/mL, the AUC(0-t) ([1]; plasma, single oral dose 1 mg, healthy volunteers, final mean, read-out: AUC0-last) was 130 ng·h/mL and the AUC ([1]; plasma, single oral dose 1 mg, healthy volunteers, preliminary mean) was 161 ng·h/mL. For the same molecule, the AUC ([1]; plasma, single oral dose 3 mg, healthy volunteers, preliminary mean) was 477 ng·h/mL, the AUC ([1]; plasma, single oral dose 10 mg, healthy volunteers, preliminary mean) was 2110 ng·h/mL and the AUC ([1]; plasma, single oral dose 20 mg, healthy volunteers, preliminary mean) was 4020 ng·h/mL. It also gave an AUC(0-inf) ([1]; plasma, single oral dose 50 mg, healthy volunteers, final mean) of 8480 ng·h/mL, an AUC(0-t) ([1]; plasma, single oral dose 50 mg, healthy volunteers, final mean, read-out: AUC0-last) of 6880 ng·h/mL and an AUC ([1]; plasma, single oral dose 50 mg, healthy volunteers, preliminary mean) of 9180 ng·h/mL. It also gave an AUC(0-inf) ([1]; plasma, single oral dose 75 mg, healthy volunteers, final mean) of 13500 ng·h/mL, an AUC(0-t) ([1]; plasma, single oral dose 75 mg, healthy volunteers, final mean, read-out: AUC0-last) of 10800 ng·h/mL and an AUC ([1]; plasma, single oral dose 75 mg, healthy volunteers, preliminary mean) of 12600 ng·h/mL. The AUC(0-inf) ([1]; plasma, single oral dose 100 mg, healthy volunteers, final mean) was 11100 ng·h/mL, the AUC(0-t) ([1]; plasma, single oral dose 100 mg, healthy volunteers, final mean, read-out: AUC0-last) was 10900 ng·h/mL and the AUC ([1]; plasma, single oral dose 100 mg, healthy volunteers, preliminary mean) was 10500 ng·h/mL. It also gave a half-life ([1]; serum, oral, single dose 1 mg to 100 mg, independent of the dose, read-out: serum elimination half-life (mean t1/2)) of 18 to 24 h, a Cmax ([1]; serum, po, 3 mg, single oral dose 3 mg, healthy volunteers, final mean, read-out: Cmax) of 17.1 ng/mL and a half-life ([1]; serum, po, 3 mg, single oral dose 3 mg, healthy volunteers, final mean, read-out: T½ (converted)) of 23.6 h. For the same molecule, the Cmax ([1]; serum, po, 10 mg, single oral dose 10 mg, healthy volunteers, final mean, read-out: Cmax) was 69.1 ng/mL, the half-life ([1]; serum, po, 10 mg, single oral dose 10 mg, healthy volunteers, final mean, read-out: T½ (converted)) was 21.8 h and the Cmax ([1]; serum, po, 20 mg, single oral dose 20 mg, healthy volunteers, final mean, read-out: Cmax) was 169 ng/mL. It also gave a half-life ([1]; serum, po, 20 mg, single oral dose 20 mg, healthy volunteers, final mean, read-out: T½ (converted)) of 18.9 h, an AUC(0-inf) ([1]; serum, single oral dose 3 mg, healthy volunteers, final mean) of 534 ng·h/mL and an AUC(0-t) ([1]; serum, single oral dose 3 mg, healthy volunteers, final mean, read-out: AUC0-last) of 401 ng·h/mL. It also gave an AUC(0-inf) ([1]; serum, single oral dose 10 mg, healthy volunteers, final mean) of 2380 ng·h/mL, an AUC(0-t) ([1]; serum, single oral dose 10 mg, healthy volunteers, final mean, read-out: AUC0-last) of 1650 ng·h/mL and an AUC(0-inf) ([1]; serum, single oral dose 20 mg, healthy volunteers, final mean) of 4440 ng·h/mL. The AUC(0-t) ([1]; serum, single oral dose 20 mg, healthy volunteers, final mean, read-out: AUC0-last) was 3600 ng·h/mL, the AUC(0-t) ([1]; plasma, oral, 100 mg daily dose, read-out: mean AUC0-last) was ~10900 ng·h/mL and the Tmax ([1]; plasma, oral, 100 mg daily dose) was ~6.2 h. It also gave an AUC(0-t) ([1]; plasma, oral, single 1 mg daily dose, read-out: mean AUC0-last) of ~130 ng·h/mL, a Tmax ([1]; plasma, oral, single 1 mg daily dose) of ~6.1 h and an AUC(0-t) ([1]; plasma, oral, single 3 mg daily dose, read-out: mean AUC0-last) of 235 to 400 ng·h/mL. The Tmax ([1]; plasma, oral, single 3 mg daily dose) was ~5.5 h, the AUC(0-t) ([1]; plasma, oral, single 10 mg daily dose, read-out: mean AUC0-last) was 840 to 1640 ng·h/mL and the Tmax ([1]; plasma, oral, single 10 mg daily dose) was 4.8 to 6 h. The AUC(0-t) ([1]; plasma, oral, single 20 mg daily dose, read-out: mean AUC0-last) was 1960 to 3600 ng·h/mL, the Tmax ([1]; plasma, oral, single 20 mg daily dose) was ~5.2 h and the AUC(0-t) ([1]; plasma, oral, single 50 mg daily dose, read-out: mean AUC0-last) was ~6880 ng·h/mL. The Tmax ([1]; plasma, oral, single 50 mg daily dose) was ~4.8 h, the AUC(0-t) ([1]; plasma, oral, single 75 mg daily dose, read-out: mean AUC0-last) was ~10800 ng·h/mL and the Tmax ([1]; plasma, oral, single 75 mg daily dose) was ~6 h. For the same molecule, the “dose proportionality of Cmax and AUC” value ([1]; single doses 1 to 100 mg, slightly lower than expected exposure at 100 mg) was “increased proportionally up to the 75 mg dose” and the lag time ([1]; single oral dose, healthy volunteers) was 2 to 4 h.
